Experimental findings from ChEMBL document CHEMBL1687815, “In vivo selection of a missense mutation in adeR and conversion of the novel blaOXA-164 gene into blaOXA-58 in carbapenem-resistant Acinetobacter baumannii isolates from a hospitalized patient” (2010) are described below.

The subject of assay [1] is Acinetobacter baumannii. Nature of the assay: Antimicrobial activity against Acinetobacter baumannii isolate J expressing beta-lactamase OXA-58 isolated from bedsore by vitek 2 system.
Assay [2] has as its system Acinetobacter baumannii. Nature of the assay: Antimicrobial activity against Acinetobacter baumannii isolate F expressing beta-lactamase OXA-164 isolated from tracheostoma of patient by vitek 2 system.
Assay [3] deals with Acinetobacter baumannii. Nature of the assay: Antimicrobial activity against Acinetobacter baumannii isolate K expressing beta-lactamase OXA-58 isolated from blood culture of patient by vitek 2 system.
For assay [4], the system named is Acinetobacter baumannii. Nature of the assay: Antimicrobial activity against Acinetobacter baumannii isolate G expressing beta-lactamase OXA-58 isolated from tracheal secretion of patient by vitek 2 system.
Assay [5] relates to Acinetobacter baumannii. Nature of the assay: Antimicrobial activity against Acinetobacter baumannii isolate H expressing beta-lactamase OXA-58 isolated from tracheal secretion of patient by vitek 2 system.
Assay [6] deals with Acinetobacter baumannii. Nature of the assay: Antimicrobial activity against Acinetobacter baumannii isolate I expressing beta-lactamase OXA-58 isolated from tracheal secretion of patient by vitek 2 system.
In assay [7] the test system is Acinetobacter baumannii. Nature of the assay: Antimicrobial activity against Acinetobacter baumannii isolate L expressing beta-lactamase OXA-58 isolated from tracheal secretion of patient by vitek 2 system.
The subject of assay [8] is Acinetobacter baumannii. Nature of the assay: Antimicrobial activity against Acinetobacter baumannii isolate M expressing beta-lactamase OXA-58 isolated from tracheal secretion of patient by vitek 2 system.
Assay [9] relates to Acinetobacter baumannii. Nature of the assay: Antimicrobial activity against Acinetobacter baumannii isolate A expressing beta-lactamase OXA-164 isolated from tracheal secretion of patient by vitek 2 system.
Assay [10] relates to Acinetobacter baumannii. Nature of the assay: Antimicrobial activity against Acinetobacter baumannii isolate B expressing beta-lactamase OXA-164 isolated from tracheal secretion of patient by vitek 2 system.
Assay [11] deals with Acinetobacter baumannii. Nature of the assay: Antimicrobial activity against Acinetobacter baumannii isolate C expressing beta-lactamase OXA-164 isolated from tracheal secretion of patient by vitek 2 system.
For assay [12], the system named is Acinetobacter baumannii. Nature of the assay: Antimicrobial activity against Acinetobacter baumannii isolate D expressing beta-lactamase OXA-164 isolated from tracheal secretion of patient by vitek 2 system.
In assay [13] the test system is Acinetobacter baumannii. Nature of the assay: Antimicrobial activity against Acinetobacter baumannii isolate E expressing beta-lactamase OXA-164 isolated from tracheal secretion of patient by vitek 2 system.
Assay [14] relates to Acinetobacter baumannii. Nature of the assay: Antimicrobial activity against Acinetobacter baumannii isolate J expressing beta-lactamase OXA-58 isolated from bedsore by Etest.
The subject of assay [15] is Acinetobacter baumannii. Nature of the assay: Antimicrobial activity against Acinetobacter baumannii isolate F expressing beta-lactamase OXA-164 isolated from tracheostoma of patient by Etest.
Assay [16] deals with Acinetobacter baumannii. Nature of the assay: Antimicrobial activity against Acinetobacter baumannii isolate K expressing beta-lactamase OXA-58 isolated from blood culture of patient by Etest.
In assay [17] the test system is Acinetobacter baumannii. Nature of the assay: Antimicrobial activity against Acinetobacter baumannii isolate G expressing beta-lactamase OXA-58 isolated from tracheal secretion of patient by Etest.
Assay [18] relates to Acinetobacter baumannii. Nature of the assay: Antimicrobial activity against Acinetobacter baumannii isolate H expressing beta-lactamase OXA-58 isolated from tracheal secretion of patient by Etest.
In assay [19] the test system is Acinetobacter baumannii. Nature of the assay: Antimicrobial activity against Acinetobacter baumannii isolate I expressing beta-lactamase OXA-58 isolated from tracheal secretion of patient by Etest.
Assay [20] deals with Acinetobacter baumannii. Nature of the assay: Antimicrobial activity against Acinetobacter baumannii isolate L expressing beta-lactamase OXA-58 isolated from tracheal secretion of patient by Etest.
Assay [21] has as its system Acinetobacter baumannii. Nature of the assay: Antimicrobial activity against Acinetobacter baumannii isolate M expressing beta-lactamase OXA-58 isolated from tracheal secretion of patient by Etest.
In assay [22] the test system is Acinetobacter baumannii. Nature of the assay: Antimicrobial activity against Acinetobacter baumannii isolate A expressing beta-lactamase OXA-164 isolated from tracheal secretion of patient by Etest.
For assay [23], the system named is Acinetobacter baumannii. Nature of the assay: Antimicrobial activity against Acinetobacter baumannii isolate B expressing beta-lactamase OXA-164 isolated from tracheal secretion of patient by Etest.
The test system of assay [24] is Acinetobacter baumannii. Nature of the assay: Antimicrobial activity against Acinetobacter baumannii isolate C expressing beta-lactamase OXA-164 isolated from tracheal secretion of patient by Etest.
In assay [25] the test system is Acinetobacter baumannii. Nature of the assay: Antimicrobial activity against Acinetobacter baumannii isolate D expressing beta-lactamase OXA-164 isolated from tracheal secretion of patient by Etest.
Assay [26] concerns Acinetobacter baumannii. Nature of the assay: Antimicrobial activity against Acinetobacter baumannii isolate E expressing beta-lactamase OXA-164 isolated from tracheal secretion of patient by Etest.

≈ marks a conversion by molar mass, not a printed value. Calls of active or inactive are those of the source. The calls are words filed in the database; no cut-off is given here.

Turning to `CO/N=C(\C(=O)N[C@@H]1C(=O)N2C(C(=O)O)=C(COC(C)=O)CS[C@H]12)c1csc(N)n1`, the MIC entry in the assay on Acinetobacter baumannii [1], with Acinetobacter baumannii [2], in the assay with Acinetobacter baumannii [3], in the assay on Acinetobacter baumannii [4], in the assay on Acinetobacter baumannii [5] and with Acinetobacter baumannii [6] was “inactive” in each case. Also, the MIC result in the assay on Acinetobacter baumannii [7], in the assay with Acinetobacter baumannii [8], in the assay with Acinetobacter baumannii [9], in the assay with Acinetobacter baumannii [10], with Acinetobacter baumannii [11] and in the assay on Acinetobacter baumannii [12] was “inactive” throughout. In addition, in the assay with Acinetobacter baumannii [13], the MIC entry was “inactive”.
Regarding `C[C@@H]1O[C@@H]1P(=O)(O)O`, the MIC entry in the assay on Acinetobacter baumannii [1], in the assay on Acinetobacter baumannii [2], in the assay on Acinetobacter baumannii [3], in the assay with Acinetobacter baumannii [4], in the assay with Acinetobacter baumannii [5] and in the assay with Acinetobacter baumannii [6] was “inactive” each time. For the same compound, the MIC entry in the assay with Acinetobacter baumannii [7], in the assay with Acinetobacter baumannii [8], in the assay with Acinetobacter baumannii [9], in the assay on Acinetobacter baumannii [10], in the assay on Acinetobacter baumannii [11] and with Acinetobacter baumannii [12] was “inactive” throughout. Also, the MIC entry in the assay on Acinetobacter baumannii [13] is “inactive”.
On to `O=C(O)c1cn(C2CC2)c2cc(N3CCNCC3)c(F)cc2c1=O`, for which the MIC result in the assay with Acinetobacter baumannii [1], in the assay on Acinetobacter baumannii [3], in the assay on Acinetobacter baumannii [4], in the assay on Acinetobacter baumannii [5], with Acinetobacter baumannii [6] and in the assay on Acinetobacter baumannii [7] was “inactive” in each case. Also, the MIC entry with Acinetobacter baumannii [8], with Acinetobacter baumannii [9], with Acinetobacter baumannii [10], in the assay with Acinetobacter baumannii [11], with Acinetobacter baumannii [12] and in the assay with Acinetobacter baumannii [13] was “inactive” each time.
Regarding `CO/N=C(\C(=O)N[C@@H]1C(=O)N2C(C(=O)[O-])=C(C[N+]3(C)CCCC3)CS[C@H]12)c1csc(N)n1`, the MIC result in the assay with Acinetobacter baumannii [1], in the assay with Acinetobacter baumannii [2], in the assay with Acinetobacter baumannii [3], in the assay with Acinetobacter baumannii [4], with Acinetobacter baumannii [5] and in the assay with Acinetobacter baumannii [6] was “inactive” each time. The MIC result with Acinetobacter baumannii [7], with Acinetobacter baumannii [8], in the assay on Acinetobacter baumannii [9], in the assay with Acinetobacter baumannii [10], in the assay on Acinetobacter baumannii [11] and in the assay with Acinetobacter baumannii [12] was “inactive” throughout. In the assay on Acinetobacter baumannii [13], the MIC entry is “inactive”.
On to `COc1c(N2C[C@@H]3CCCN[C@@H]3C2)c(F)cc2c(=O)c(C(=O)O)cn(C3CC3)c12`, for which the MIC entry in the assay with Acinetobacter baumannii [1], in the assay on Acinetobacter baumannii [2], with Acinetobacter baumannii [3], in the assay with Acinetobacter baumannii [4], in the assay with Acinetobacter baumannii [5] and in the assay on Acinetobacter baumannii [6] was “inactive” in each case. The MIC result with Acinetobacter baumannii [7], with Acinetobacter baumannii [8], in the assay with Acinetobacter baumannii [9], with Acinetobacter baumannii [10], in the assay on Acinetobacter baumannii [11] and with Acinetobacter baumannii [12] was “inactive” each time. The MIC result in the assay on Acinetobacter baumannii [13] is “inactive”.
In the case of `CC(C)(O/N=C(\C(=O)N[C@@H]1C(=O)N2C(C(=O)[O-])=C(C[n+]3ccccc3)CS[C@H]12)c1csc(N)n1)C(=O)O`, the MIC result with Acinetobacter baumannii [1], with Acinetobacter baumannii [2], in the assay on Acinetobacter baumannii [3], with Acinetobacter baumannii [4], with Acinetobacter baumannii [5] and in the assay with Acinetobacter baumannii [6] was “inactive” throughout. The MIC result in the assay on Acinetobacter baumannii [7], with Acinetobacter baumannii [8], with Acinetobacter baumannii [9], with Acinetobacter baumannii [10], in the assay with Acinetobacter baumannii [11] and in the assay on Acinetobacter baumannii [12] was “inactive” throughout. In addition, the MIC entry in the assay with Acinetobacter baumannii [13] is “inactive”.
In the case of `CO[C@@]1(NC(=O)Cc2cccs2)C(=O)N2C(C(=O)O)=C(COC(N)=O)CS[C@@H]21`, the MIC entry with Acinetobacter baumannii [1], in the assay with Acinetobacter baumannii [2], with Acinetobacter baumannii [3], in the assay on Acinetobacter baumannii [4], with Acinetobacter baumannii [5] and in the assay with Acinetobacter baumannii [6] was “inactive” throughout. Besides, the MIC result in the assay with Acinetobacter baumannii [7], in the assay with Acinetobacter baumannii [8], with Acinetobacter baumannii [9], in the assay on Acinetobacter baumannii [10], with Acinetobacter baumannii [11] and with Acinetobacter baumannii [12] was “inactive” each time. Besides, the MIC entry in the assay on Acinetobacter baumannii [13] is “inactive”.
As to `NCC[C@H](O)C(=O)N[C@@H]1C[C@H](N)[C@@H](O[C@H]2O[C@H](CN)[C@@H](O)[C@H](O)[C@H]2O)[C@H](O)[C@H]1O[C@H]1O[C@H](CO)[C@@H](O)[C@H](N)[C@H]1O` [AMIKACIN], the MIC with Acinetobacter baumannii [1], against Acinetobacter baumannii [2], in the assay with Acinetobacter baumannii [3], in the assay with Acinetobacter baumannii [4], with Acinetobacter baumannii [5] and in the assay with Acinetobacter baumannii [6] was at least 64 µg/mL in each case. Besides, the MIC is at least 64 µg/mL with Acinetobacter baumannii [7]; at least 64 µg/mL against Acinetobacter baumannii [8]; at least 64 µg/mL in the assay with Acinetobacter baumannii [9]; at least 64 µg/mL in the assay with Acinetobacter baumannii [10]; 32 µg/mL (≈ 54.6 µM) in the assay with Acinetobacter baumannii [11]; at most 2 µg/mL in the assay on Acinetobacter baumannii [12]. This compound returned an MIC against Acinetobacter baumannii [13] of at most 2 µg/mL.
Take GENTAMICIN: the MIC entry in the assay on Acinetobacter baumannii [1], in the assay with Acinetobacter baumannii [2], with Acinetobacter baumannii [3], in the assay on Acinetobacter baumannii [4], with Acinetobacter baumannii [5] and in the assay on Acinetobacter baumannii [6] was “inactive” in each case. The MIC entry with Acinetobacter baumannii [7], with Acinetobacter baumannii [8], in the assay with Acinetobacter baumannii [9], with Acinetobacter baumannii [10], in the assay with Acinetobacter baumannii [11] and in the assay with Acinetobacter baumannii [12] was “inactive” throughout. The MIC result in the assay on Acinetobacter baumannii [13] is “inactive”.
Turning to COLISTIN, the MIC against Acinetobacter baumannii [1], with Acinetobacter baumannii [2], against Acinetobacter baumannii [3], against Acinetobacter baumannii [4], in the assay with Acinetobacter baumannii [5] and against Acinetobacter baumannii [6] was under 1 µg/mL each time. The MIC in the assay with Acinetobacter baumannii [7], with Acinetobacter baumannii [8], in the assay with Acinetobacter baumannii [9], in the assay on Acinetobacter baumannii [10], with Acinetobacter baumannii [11] and in the assay with Acinetobacter baumannii [12] was under 1 µg/mL throughout. The MIC with Acinetobacter baumannii [13] is under 1 µg/mL.
With `C[C@H]1COc2c(N3CCN(C)CC3)c(F)cc3c(=O)c(C(=O)O)cn1c23.C[C@H]1COc2c(N3CCN(C)CC3)c(F)cc3c(=O)c(C(=O)O)cn1c23.O` [LEVOFLOXACIN], the MIC is at least 64 µg/mL against Acinetobacter baumannii [14]; 8 µg/mL against Acinetobacter baumannii [15]; at least 64 µg/mL with Acinetobacter baumannii [16]; at least 64 µg/mL against Acinetobacter baumannii [17]; at least 64 µg/mL with Acinetobacter baumannii [18]; at least 64 µg/mL in the assay on Acinetobacter baumannii [19]. The MIC with Acinetobacter baumannii [20] is at least 64 µg/mL; against Acinetobacter baumannii [21] it was at least 64 µg/mL; in the assay with Acinetobacter baumannii [22], 8 µg/mL; in the assay on Acinetobacter baumannii [23], 8 µg/mL; against Acinetobacter baumannii [24], 8 µg/mL; against Acinetobacter baumannii [25], 8 µg/mL. This compound also showed an MIC in the assay with Acinetobacter baumannii [26] of 16 µg/mL.
